Values quoted from earlier work as cited in patent US11660375B2, “Product and method for the treatment of bioprosthetic tissues” (Epygon, priority 2017, dated 2023).
Read-outs that look alike come from different tables or passages of the source.

Experiments:
[1] = oral administration; IPCS, WHO Food Additives Series 32
[2] = test system: porcine aortic valve cusps; settings: rat subdermal, 60 days, pretreatment pH 7.4 for 24 hours
[3] = test system: Porcine aortic valve bioprostheses; settings: sheep, 150 days, leaflet calcium
[4] = test system: pericardium samples pretreated with 0.6% Glutaraldehyde; settings: after 6 months implantation, juvenile rats, subcutaneous
[5] = test system: porcine aortic cusps
[6] = at 25° C.

Compound: OC[C@H]1O[C@@H]2O[C@H]3[C@H](O)[C@@H](O)[C@@H](O[C@H]4[C@H](O)[C@@H](O)[C@@H](O[C@H]5[C@H](O)[C@@H](O)[C@@H](O[C@H]6[C@H](O)[C@@H](O)[C@@H](O[C@H]7[C@H](O)[C@@H](O)[C@@H](O[C@H]8[C@H](O)[C@@H](O)[C@@H](O[C@H]1[C@H](O)[C@H]2O)O[C@@H]8CO)O[C@@H]7CO)O[C@@H]6CO)O[C@@H]5CO)O[C@@H]4CO)O[C@@H]3CO [β-Cyclodextrin]
- toxicity on parenteral administration: nephrotoxic
- acceptable daily intake [1]: 5 mg/kg of body weight

Compound: OC[C@H]1O[C@@H]2O[C@H]3[C@H](O)[C@@H](O)[C@@H](O[C@H]4[C@H](O)[C@@H](O)[C@@H](O[C@H]5[C@H](O)[C@@H](O)[C@@H](O[C@H]6[C@H](O)[C@@H](O)[C@@H](O[C@H]7[C@H](O)[C@@H](O)[C@@H](O[C@H]1[C@H](O)[C@H]2O)O[C@@H]7CO)O[C@@H]6CO)O[C@@H]5CO)O[C@@H]4CO)O[C@@H]3CO [α-Cyclodextrins, α-Cyclodextrin]
- toxicity on parenteral administration: don't show any toxicity

Compound: CCO [80% Ethanol, Ethanol]
- calcium level ([2]; listed as 80.0% Ethanol): 1.87±0.29 μg/mg tissue
- Ca [3]: 5.22 ± 2.94

Compound: OC[C@H]1O[C@H](O[C@H]2[C@H](O)[C@@H](O)[C@@H](OC[C@H]3O[C@@H]4O[C@H]5[C@H](O)[C@@H](O)[C@@H](O[C@H]6[C@H](O)[C@@H](O)[C@@H](O[C@H]7[C@H](O)[C@@H](O)C(O[C@H]8[C@H](O)[C@@H](O)[C@@H](O[C@H]9[C@H](O)[C@@H](O)[C@@H](O[C@H]%10[C@H](O)[C@@H](O)[C@@H](O[C@H]3[C@H](O)[C@H]4O)O[C@@H]%10CO)O[C@@H]9CO)O[C@@H]8CO)O[C@@H]7CO)O[C@@H]6CO)O[C@@H]5CO)O[C@@H]2CO)[C@H](O)[C@@H](O)[C@@H]1O [Maltosyl β-Cyclodextrin]
- toxicity on parenteral administration: appear to be safe

Compound: 2-hydroxypropyl β-Cyclodextrin [HP p-CD]
- toxicity on parenteral administration: don't show any toxicity
- toxicity on parenteral administration (listed as 2-hydroxypropyl β-Cyclodextrin): appear to be safe

Compound: Sulphated β-Cyclodextrin
- toxicity on parenteral administration: appear to be safe

Compound: CCCCCCCC/C=C\CCCCCCCC(=O)OCCOCC(OCCO)C1OCC(OCCO)C1OCCO (stereo not drawn) [surfactant, Tween 80]
- calcium content [4]: 42.9±12.7 μg/mg dry tissue

Compound: CCO [Ethanol]
- Ca [5]: 13.3+/−5.6 μg/mg tissue

Compound: Sulfobutyl Ether7 β-Cyclodextrin [SBE7 β-CD]
- toxicity on parenteral administration: appear to be safe
- water solubility [6]: ~70 g/100 ml

Compound: OC[C@H]1O[C@@H]2O[C@H]3[C@H](O)[C@@H](O)[C@@H](O[C@H]4[C@H](O)[C@@H](O)[C@@H](O[C@H]5[C@H](O)[C@@H](O)[C@@H](O[C@H]6[C@H](O)[C@@H](O)[C@@H](O[C@H]7[C@H](O)[C@@H](O)[C@@H](O[C@H]8[C@H](O)[C@@H](O)[C@@H](O[C@H]9[C@H](O)[C@@H](O)[C@@H](O[C@H]1[C@H](O)[C@H]2O)O[C@@H]9CO)O[C@@H]8CO)O[C@@H]7CO)O[C@@H]6CO)O[C@@H]5CO)O[C@@H]4CO)O[C@@H]3CO [γ-Cyclodextrin]
- toxicity on parenteral administration: appear to be safe

Compound: CCO [60% Ethanol, Ethanol]
- calcium level ([2]; listed as 60.0% Ethanol): 28.5±12.0 μg/mg tissue
